Test results as given in US9422321B2, “Pyrimidine nucleoside derivatives, synthesis methods and uses thereof for preparing anti-tumor and anti-virus medicaments” (High & New Technology Research Center, Henan Academy of …, priority 2010, dated 2016).

Key:
VSVG/HIV-luc (NL4-3) = assay: microbe, parasite or virus in culture; assay type: cell-based, HIV-1; conditions: Human immunodeficiency virus 1, NL43, HEK-293T; for inhibition at 10 µM: read-out: Inhibitory activity at 10 μM; for EC50: 48 h, read-out: EC50 (μM) VSVG/HIV-luc (NL4-3)
[1] = MTT test of cytotoxicity on HepG2.2.15 cells; assay type: cell-based; conditions: human, read-out: CC50 (μM) (HepG2. 2. 15)
Method: (§1) A tube of frozen HepG2.2.15 cells taken from a liquid nitrogen tank was quickly placed into a water bath at 42° C. and shaken to thaw. DMEM complete medium (fetal bovine serum 10%, G418 380 μg/mL, Penicillin 100 U/ml, Streptomycin 100 U/ml) was used for cell culturing at conditions of 37° C. and 5% CO2. The number of cell passage in normal growing cells was once per 2-3 days.
Cytotoxicity of the compound on HepG2.2.15 cells was tested with the MTT colorimetric assay established by Mosmann. After continuous incubation for 72 h, 10 μL MTT was added to each well. Four hours later, the supernatant was discarded and 200 μL DMSO was added to each well. The OD value in each well was read using a microplate reader (measurement wavelength 490 nm, reference wavelength 630 nm). The result was recorded and the percentage inhibition of HepG2.2.15 cells by each compound was calculated:
The half toxic concentration (TC50) of the medicament on cells was calculated according to the percentage inhibition of the cell by the medicament.

HBeAg = assay: In vitro inhibition of HBV: HBeAg in HepG2.2.15 cells by ELISA; assay type: cell-based; conditions: Hepatitis B virus, HepG2.2.15, read-out: IC50 (μM) (HBeAg)
Method: as §1
(§2) The effect of a compound on HBV surface antigen s and antigen e in the cell culture was detected using a screening concentration lower than the half toxic concentration of the compound. HepG2.2.15 cells in logarithmic growth phase were selected and digested with trypsin into single cell suspension, and were seeded to a 24-well plate at a concentration of 2×10^4/mL, 1 mL per well. Media of different medicament concentrations were added, three wells for each concentration, and cells added with complete medium were set as normal control. Cell supernatants and cells at day 3, day 6 and day 9 were collected and kept under −20° C. The intracellular and extracellular expressions of e antigen and surface antigen at day 3, day 6 and day 9 were determined by ELISA.
(§3) 2.4 Effect of the Compound on HBeAg and HBsAg in HepG2.2.15 Cell Supernatant Detected by ELISA
(§4) The instructions of the kit were followed;
(§5) Measurement: OD value of each well was read from microplate reader using dual wavelength 450/630 nm.
(§6) Result determination: The Cutoff value was first calculated according to equation: COV=average OD of negative control×2.1. Then, if a sample had OD≧COV, the result was determined as positive, or if a sample had OD≦COV, the result was determined as negative.

[2] = MTS test of effects of the compound on cell survival; assay type: cell-based; conditions: human, 293T cells
Method: Then, 20 μL freshly prepared mixture of MTS/PMS was added to each well and after 4 h incubation in the incubator at 37° C. with 5% CO2, the color was developed. The light absorption (OD) of each well at wavelengths 490 nm and 650 nm (background) was detected on an enzyme linked immuno analyzer, and the survival rate of cells was calculated.

HBsAg = assay: In vitro inhibition of HBV: HBsAg in HepG2.2.15 cells by ELISA; assay type: cell-based; conditions: Hepatitis B virus, HepG2.2.15, read-out: IC50 (μM) (HBsAg)
Method: as §1, §2, §3, §4, §5, §6

SMILES | inhibition at 10 µM (VSVG/HIV-luc (NL4-3)) [%] | CC50 at 72 h [1] [µM] | IC50 (HBeAg) [µM] | EC50 (VSVG/HIV-luc (NL4-3)) [µM] | CC50 at 44 h [2] [µM] | IC50 (HBsAg) [µM]
[N-]=[N+]=N[C@]1(CO)O[C@@H](n2cc(-c3ccco3)c(N)nc2=O)C(F)C1O (stereo partly drawn) [Compound 12] | 15.8 ± 4.4 | – | – | – | – | –
CN(C)c1ccn([C@@H]2O[C@@](CO)(N=[N+]=[N-])C(O)C2F)c(=O)n1 (stereo partly drawn) [Compound 5-21] | – | > 250 | 15.5 | 13 ± 6 | ≥ 25 | –
CCCCCCCCNc1ccn([C@@H]2O[C@@](CO)(N=[N+]=[N-])C(O)C2F)c(=O)n1 (stereo partly drawn) [Compound 5-27] | 32.3 ± 3.2 | – | – | – | – | –
[N-]=[N+]=N[C@]1(CO)O[C@@H](n2cc3cc(CCO)oc3nc2=O)C(F)C1O (stereo partly drawn) [Compound 16] | 9.9 ± 0.8 | – | – | – | – | –
[N-]=[N+]=N[C@]1(CO)O[C@@H](n2cc(C(=O)N3CCSCC3)c(=O)[nH]c2=O)C(F)C1O (stereo partly drawn) [Compound 27] | 4.8 ± 1.8 | 585 | – | – | – | < 0.1
CNc1ccn([C@@H]2O[C@@](CO)(N=[N+]=[N-])C(O)C2F)c(=O)n1 (stereo partly drawn) [Compound 5-28] | – | > 250 | 14.3 | 6.7 ± 4.7 | ≥ 25 | 6.26
[N-]=[N+]=N[C@]1(CO)O[C@@H](n2ccc(N[C@@H](Cc3cc4ccccc4[nH]3)C(=O)O)nc2=O)C(F)C1O (stereo partly drawn) [Compound 8d] | – | ≥ 25 | 0.36 | 0.7 ± 0.1 | ≥ 25 | 0.03
[N-]=[N+]=N[C@]1(CO)O[C@@H](n2cc(-c3ccco3)c(=O)[nH]c2=O)C(F)C1O (stereo partly drawn) [Compound 10] | 15.1 ± 0.8 | – | – | – | – | –
COC(=O)[C@H](CCSC)Nc1ccn([C@@H]2O[C@@](CO)(N=[N+]=[N-])C(O)C2F)c(=O)n1 (stereo partly drawn) [Compound 8g] | – | > 250 | – | 8.1 ± 5.5 | ≥ 25 | 19.6
CNNc1ccn([C@@H]2O[C@@](CO)(N=[N+]=[N-])C(O)C2F)c(=O)n1 (stereo partly drawn) [Compound 5-31] | 22.8 ± 3.5 | – | – | – | – | –
[N-]=[N+]=N[C@]1(CO)O[C@@H](n2ccc(NCC(O)CO)nc2=O)C(F)C1O (stereo partly drawn) [Compound 5-18] | 17.8 ± 0.6 | – | – | – | – | –
[N-]=[N+]=N[C@]1(CO)O[C@@H](n2ccc(NCCc3ccc(O)cc3)nc2=O)C(F)C1O (stereo partly drawn) [Compound 5-03] | – | 834 | – | 5.7 ± 0.2 | ≥ 25 | < 0.1
Cc1cn([C@H]2C[C@H](N=[N+]=[N-])[C@@H](CO)O2)c(=O)[nH]c1=O [Zidovudine, reference compound] | – | – | – | 0.084 ± 0.0026 | – | –
[N-]=[N+]=N[C@]1(CO)O[C@@H](n2cc(C(=O)N3CCOCC3)c(=O)[nH]c2=O)C(F)C1O (stereo partly drawn) [Compound 22] | 0 | 644 | – | – | – | 2.14
COC(=O)[C@H](CO)Nc1ccn([C@@H]2O[C@@](CO)(N=[N+]=[N-])C(O)C2F)c(=O)n1 (stereo partly drawn) [Compound 8h] | – | > 250 | – | 6.2 ± 0.6 | ≥ 25 | 0.07
CCNc1ccn([C@@H]2O[C@@](CO)(N=[N+]=[N-])C(O)C2F)c(=O)n1 (stereo partly drawn) [Compound 5-01] | 21.6 ± 1.3 | – | – | – | – | –
COC(=O)[C@@H]1CCCN1c1ccn([C@@H]2O[C@@](CO)(N=[N+]=[N-])C(O)C2F)c(=O)n1 (stereo partly drawn) [Compound 7L] | 5.1 ± 4.6 | 596 | – | – | – | 0.02
CCN(CC)c1ccn([C@@H]2O[C@@](CO)(N=[N+]=[N-])C(O)C2F)c(=O)n1 (stereo partly drawn) [Compound 5-04] | 8.6 ± 7.5 | – | – | – | – | –
[N-]=[N+]=N[C@]1(CO)O[C@@H](n2ccc(N3CCCC3)nc2=O)C(F)C1O (stereo partly drawn) [Compound 5-05] | 31.6 ± 3.6 | – | – | – | – | –
[N-]=[N+]=N[C@]1(CO)O[C@@H](n2ccc(N3CCSCC3)nc2=O)C(F)C1O (stereo partly drawn) [Compound 5-29] | 11.6 ± 0.5 | – | – | – | – | –
CCCCCCCNc1ccn([C@@H]2O[C@@](CO)(N=[N+]=[N-])C(O)C2F)c(=O)n1 (stereo partly drawn) [Compound 5-26] | 33.9 ± 0.5 | – | – | – | – | –
COC(=O)[C@H](Nc1ccn([C@@H]2O[C@@](CO)(N=[N+]=[N-])C(O)C2F)c(=O)n1)C(C)C (stereo partly drawn) [Compound 8f] | – | > 250 | – | 4.7 ± 0.1 | ≥ 25 | 0.26
CCCCCNc1ccn([C@@H]2O[C@@](CO)(N=[N+]=[N-])C(O)C2F)c(=O)n1 (stereo partly drawn) [Compound 5-24] | 33.8 ± 1 | – | – | – | – | –

SMILES | inhibition at 10 µM (VSVG/HIV-luc (NL4-3)) [%] | CC50 at 72 h [1] [µM] | IC50 (HBeAg) [µM] | EC50 (VSVG/HIV-luc (NL4-3)) [µM] | CC50 at 44 h [2] [µM] | IC50 (HBsAg) [µM]
[N-]=[N+]=N[C@]1(CO)O[C@@H](n2cc(C#CCCO)c(N)nc2=O)C(F)C1O (stereo partly drawn) [Compound 15] | 27 ± 4.7 | – | – | – | – | –
CCONc1ccn([C@@H]2O[C@@](CO)(N=[N+]=[N-])C(O)C2F)c(=O)n1 (stereo partly drawn) [Compound 5-08] | 15.6 ± 1.3 | 572 | > 1 | – | – | 0.12
[N-]=[N+]=N[C@]1(CO)O[C@@H](n2ccc(NCCO)nc2=O)C(F)C1O (stereo partly drawn) [Compound 5-13] | 41.7 ± 1.8 | – | – | – | – | –
[N-]=[N+]=N[C@]1(CO)O[C@@H](n2ccc(NCCCN)nc2=O)C(F)C1O (stereo partly drawn) [Compound 5-32] | 0.9 ± 0.8 | – | – | – | – | –
[N-]=[N+]=N[C@]1(CO)O[C@@H](n2ccc(NCCCO)nc2=O)C(F)C1O (stereo partly drawn) [Compound 5-14] | 6.3 ± 3.2 | 668 | – | – | – | 2.46
[N-]=[N+]=N[C@]1(CO)O[C@@H](n2ccc(NCC(O)CN)nc2=O)C(F)C1O (stereo partly drawn) [Compound 5-33] | 14.1 ± 2.2 | – | – | – | – | –
COC(=O)[C@H](Cc1ccccc1)Nc1ccn([C@@H]2O[C@@](CO)(N=[N+]=[N-])C(O)C2F)c(=O)n1 (stereo partly drawn) [Compound 8n] | – | > 250 | 4.41 | 5.4 ± 3 | ≥ 25 | –
[N-]=[N+]=N[C@]1(CO)O[C@@H](n2ccc(NCC(N)=O)nc2=O)C(F)C1O (stereo partly drawn) [Compound 7j] | – | 239 | 6.16 | 10 ± 7 | ≥ 25 | –
[N-]=[N+]=N[C@]1(CO)O[C@@H](n2ccc(NNC(N)=O)nc2=O)C(F)C1O (stereo partly drawn) [Compound 5-30] | 38.6 ± 5.7 | – | – | – | – | –
[N-]=[N+]=N[C@]1(CO)O[C@@H](n2ccc(NN3CCOCC3)nc2=O)C(F)C1O (stereo partly drawn) [Compound 5-22] | 14.2 ± 5.1 | – | – | – | – | –
CON(C)c1ccn([C@@H]2O[C@@](CO)(N=[N+]=[N-])C(O)C2F)c(=O)n1 (stereo partly drawn) [Compound 5-06] | 32.2 ± 10.5 | – | – | – | – | –
CC(Nc1ccn([C@@H]2O[C@@](CO)(N=[N+]=[N-])C(O)C2F)c(=O)n1)C(=O)O (stereo partly drawn) [Compound 8m] | – | – | – | 0.5 ± 0.3 | ≥ 25 | –
[N-]=[N+]=N[C@]1(CO)O[C@@H](n2cc(C#CCCO)c(=O)[nH]c2=O)C(F)C1O (stereo partly drawn) [Compound 14] | 10 ± 5.9 | – | – | – | – | –
[N-]=[N+]=N[C@]1(CO)O[C@@H](n2ccc(N3CCOCC3)nc2=O)C(F)C1O (stereo partly drawn) [Compound 5-12] | 3 ± 6.9 | 700 | > 1 | – | – | < 0.1
[N-]=[N+]=N[C@]1(CO)O[C@@H](n2ccc(NCc3ccccc3)nc2=O)C(F)C1O (stereo partly drawn) [Compound 5-16] | 31.3 ± 4 | – | – | – | – | –
[N-]=[N+]=N[C@]1(CO)O[C@@H](n2ccc(NC3CCCCC3)nc2=O)C(F)C1O (stereo partly drawn) [Compound 5-10] | 1.9 ± 2.2 | 654 | – | – | – | < 0.1
[N-]=[N+]=N[C@]1(CO)O[C@@H](n2ccc(NCCc3c[nH]c4ccccc34)nc2=O)C(F)C1O (stereo partly drawn) [Compound 5-20] | – | > 250 | – | 5.8 ± 2.6 | ≥ 25 | –
[N-]=[N+]=N[C@]1(CO)O[C@@H](n2ccc(NCc3ccco3)nc2=O)C(F)C1O (stereo partly drawn) [Compound 5-09] | – | ≥ 25 | – | 0.7 ± 0.1 | ≥ 25 | 0.19
CONc1ccn([C@@H]2O[C@@](CO)(N=[N+]=[N-])C(O)C2F)c(=O)n1 (stereo partly drawn) [Compound 5-07] | 29.4 ± 5.1 | 418 | > 1 | – | – | < 0.01
CCCCCCNc1ccn([C@@H]2O[C@@](CO)(N=[N+]=[N-])C(O)C2F)c(=O)n1 (stereo partly drawn) [Compound 5-25] | 35 ± 1.7 | – | – | – | – | –
COCCCNc1ccn([C@@H]2O[C@@](CO)(N=[N+]=[N-])C(O)C2F)c(=O)n1 (stereo partly drawn) [Compound 5-23] | 10.4 ± 3.5 | – | – | – | – | –
[N-]=[N+]=N[C@]1(CO)O[C@@H](n2cc(C(=O)N3CCCC3)c(=O)[nH]c2=O)C(F)C1O (stereo partly drawn) [Compound 25] | 16.8 ± 1.2 | – | – | – | – | –
